# Assay results published in patent US11111245B2, “Derivatives of N-cycloalkyl/heterocycloalkyl-4-(imidazo[1,2-a]pyridine)pyrimidin-2-amine as therapeutic agents” (Aucentra Therapeutics Pty Ltd, priority 2017, dated 2021).
# How the values were obtained:
# leukemia cell lines = experiment: Resazurin cell viability assay on leukemia cell lines (72 h growth inhibition, GI50); type: cell-based; conditions: Homo sapiens, MV4-11 cells
# Procedure: Compounds from Example 1 were subjected to a standard MTT (3-(4,5-dimethylthiazol-2-yl)-2,5-diphenyltetrazolium bromide) and resazurin assays on solid tumour cell lines and leukemia cell lines, respectively, as previously reported (Wang S et al., J Med Chem 47:1662-1675, 2004 and Diab S. et al. CheMedChem 9:962-972, 2014). Compound concentrations required to inhibit 50% of cell growth (GI50) were calculated using non-linear regression analysis.
# CDK4/D1 = CDK4/D1 (Homo sapiens, UniProt P11802); experiment: ADP Glo Kinase assay CDK4/D1; type: biochemical; conditions: CDK4D1; for remaining activity at 10 µM: compound at 10 μM, read-out: residual activity (%) at 10 μM CDK4D1
# Procedure: (§1) Eurofins Pharma Discovery or Reaction Biology Corporation Kinase Profiler services were used to measure inhibition of CDKs and other kinases by radiometric assay. Inhibition of CDK4/D1, CDK6/D3 and CDK9/T1 were also determined in-house using ADP Glo Kinase assays (Promega Corporation, Madison, USA). Briefly, the kinase reaction for CDK4/D1 and CDK6/D3 was performed with kinase reaction buffer ([…] Tris base pH 7.5, 20 mM MgCl2, 0.4 mM DTT), 0.1 mg/ml BSA and RB-CTF substrate (retinoblastoma protein 1 C-terminal fraction). For CDK9/CyclinT1, the kinase reaction was performed with standard assay buffer and Kinase Dilution Buffer and RBER-IRStide substrate. Serial dilutions of 1:3 were prepared for test compounds for 10 concentrations (from 10 μM to 0.5 nM). The kinase reactions were started by addition of ATP, incubated for 40 min at 37° C. and then stopped by adding 10 μL of ADP Glo reagent. After incubation at room temperature in the dark for 40 min, 20 μL of kinase detection reagent was added per well and incubated for 40 min. Luminescence was measured using an EnVision Multilabel plate reader (PerkinElmer, Buckinghamshire, UK). Positive and negative controls were performed in the presence and absence of CDK kinases, respectively. Half-maximal inhibition (IC50) values were calculated using a 4-parameter logistic non-linear regression model with Graphpad prism (Version 6.0). Apparent inhibition constants (Ki) values were calculated from Km (ATP) and IC50 values for the respective kinases.
# CDK9/T1 = CDK9/T1 (Homo sapiens, UniProt P50750); experiment: ADP Glo Kinase assay CDK9/T1; type: biochemical; conditions: CDK9T1; read-out: CDK inhibition, Ki (μM) CDK9T1
# Procedure: as §1
# CDKs and other kinases [1] = molecular target: T1, CDKs and other kinases (Homo sapiens, UniProt P06493); experiment: Radiometric kinase assay (Eurofins Pharma Discovery or Reaction Biology Corporation Kinase Profiler); type: biochemical; conditions: CDK1B; for Ki: read-out: CDK inhibition, Ki (μM) CDK1B; for remaining activity at 10 µM: compound at 10 μM, read-out: residual activity (%) at 10 μM CDK1B
# T1 construct: other: CDK1B; residual activity (%) at 10 μM CDK1B; compound at 10 μM
# Procedure: as §1
# CDKs and other kinases [2] = molecular target: T2, CDKs and other kinases (Homo sapiens, UniProt P24941); experiment: as above; type: biochemical; conditions: CDK2A; for Ki: read-out: CDK inhibition, Ki (μM) CDK2A; for remaining activity at 10 µM: compound at 10 μM, read-out: residual activity (%) at 10 μM CDK2A
# T2 construct: other: CDK2A; residual activity (%) at 10 μM CDK2A; compound at 10 μM
# Procedure: as §1
# CDKs and other kinases [3] = molecular target: T3, CDKs and other kinases (Homo sapiens, UniProt P50613); experiment: as above; type: biochemical; conditions: CDK7H; for remaining activity at 10 µM: compound at 10 μM, read-out: residual activity (%) at 10 μM CDK7H; for Ki: read-out: CDK inhibition, Ki (μM) CDK7H
# T3 construct: other: CDK7H; residual activity (%) at 10 μM CDK7H; compound at 10 μM
# Procedure: as §1
# T1 sequence (P06493 whole entry): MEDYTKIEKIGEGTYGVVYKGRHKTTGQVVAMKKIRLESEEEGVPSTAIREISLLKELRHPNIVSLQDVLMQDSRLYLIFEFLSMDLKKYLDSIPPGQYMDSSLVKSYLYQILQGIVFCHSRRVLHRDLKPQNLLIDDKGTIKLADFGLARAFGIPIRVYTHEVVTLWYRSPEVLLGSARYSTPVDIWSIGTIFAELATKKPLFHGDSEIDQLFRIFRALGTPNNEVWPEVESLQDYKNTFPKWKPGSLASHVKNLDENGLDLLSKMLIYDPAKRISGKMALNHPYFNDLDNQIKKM
# Sequence of CDK4/D1 (P11802 whole entry): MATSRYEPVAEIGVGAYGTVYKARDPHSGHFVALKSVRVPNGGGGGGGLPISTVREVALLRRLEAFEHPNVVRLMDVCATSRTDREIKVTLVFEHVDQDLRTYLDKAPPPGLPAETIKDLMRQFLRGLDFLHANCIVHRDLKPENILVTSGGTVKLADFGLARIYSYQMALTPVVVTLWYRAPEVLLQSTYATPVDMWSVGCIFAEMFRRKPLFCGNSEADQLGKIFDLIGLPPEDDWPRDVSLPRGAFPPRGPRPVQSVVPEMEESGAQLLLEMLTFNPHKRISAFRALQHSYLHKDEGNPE
# Sequence of CDK4/D1 (P24385 whole entry partner): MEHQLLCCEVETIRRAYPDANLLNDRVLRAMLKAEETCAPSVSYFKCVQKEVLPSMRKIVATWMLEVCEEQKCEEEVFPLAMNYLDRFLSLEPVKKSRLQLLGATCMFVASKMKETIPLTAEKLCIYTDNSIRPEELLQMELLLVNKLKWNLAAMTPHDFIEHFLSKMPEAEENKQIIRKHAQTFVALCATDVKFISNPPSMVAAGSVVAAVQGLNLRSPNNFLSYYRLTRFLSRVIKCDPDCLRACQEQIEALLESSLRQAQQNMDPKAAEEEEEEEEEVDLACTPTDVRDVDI
# Sequence of CDK9/T1 (P50750 whole entry): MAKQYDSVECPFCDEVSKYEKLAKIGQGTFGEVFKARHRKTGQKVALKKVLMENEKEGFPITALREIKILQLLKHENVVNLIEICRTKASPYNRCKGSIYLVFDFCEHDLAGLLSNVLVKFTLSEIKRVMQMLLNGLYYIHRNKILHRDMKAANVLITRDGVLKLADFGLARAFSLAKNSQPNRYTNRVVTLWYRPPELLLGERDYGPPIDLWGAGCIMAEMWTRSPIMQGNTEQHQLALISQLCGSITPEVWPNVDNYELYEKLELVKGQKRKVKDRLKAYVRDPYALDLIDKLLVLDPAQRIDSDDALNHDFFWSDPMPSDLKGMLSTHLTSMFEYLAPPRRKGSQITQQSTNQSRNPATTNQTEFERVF
# Sequence of CDK9/T1 (O60563 whole entry partner): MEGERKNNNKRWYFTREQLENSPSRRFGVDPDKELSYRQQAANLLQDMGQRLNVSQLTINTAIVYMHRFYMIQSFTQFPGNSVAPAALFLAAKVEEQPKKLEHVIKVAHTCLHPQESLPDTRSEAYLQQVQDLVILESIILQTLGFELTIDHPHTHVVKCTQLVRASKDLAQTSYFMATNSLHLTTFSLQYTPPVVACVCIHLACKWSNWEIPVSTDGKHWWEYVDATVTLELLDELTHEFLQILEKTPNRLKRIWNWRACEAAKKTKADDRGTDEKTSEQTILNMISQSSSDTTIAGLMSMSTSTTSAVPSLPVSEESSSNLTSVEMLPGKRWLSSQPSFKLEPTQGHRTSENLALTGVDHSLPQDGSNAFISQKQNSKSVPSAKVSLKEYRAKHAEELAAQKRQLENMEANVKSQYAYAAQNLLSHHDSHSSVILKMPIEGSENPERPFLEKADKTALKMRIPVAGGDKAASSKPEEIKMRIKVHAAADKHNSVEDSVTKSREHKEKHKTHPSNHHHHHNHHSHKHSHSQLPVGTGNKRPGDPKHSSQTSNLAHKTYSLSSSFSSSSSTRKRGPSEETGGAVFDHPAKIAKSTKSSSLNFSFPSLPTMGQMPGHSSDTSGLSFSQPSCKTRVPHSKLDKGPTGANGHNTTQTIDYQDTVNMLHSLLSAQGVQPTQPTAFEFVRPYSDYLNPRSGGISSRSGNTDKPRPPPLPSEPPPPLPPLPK
# T3 sequence (P50613 whole entry): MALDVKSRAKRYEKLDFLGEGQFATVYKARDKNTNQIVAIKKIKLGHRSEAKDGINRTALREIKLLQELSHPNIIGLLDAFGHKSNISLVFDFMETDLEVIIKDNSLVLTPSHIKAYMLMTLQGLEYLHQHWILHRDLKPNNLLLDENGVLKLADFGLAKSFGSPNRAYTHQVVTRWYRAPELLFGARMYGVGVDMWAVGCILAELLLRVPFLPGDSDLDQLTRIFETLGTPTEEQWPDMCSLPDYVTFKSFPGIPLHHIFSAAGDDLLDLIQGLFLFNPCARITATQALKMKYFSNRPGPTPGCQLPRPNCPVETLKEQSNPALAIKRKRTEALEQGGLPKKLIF
Structure (SMILES),GI50 (leukemia cell lines) [µM],remaining activity at 10 µM (CDK4/D1) [%],Ki (CDK9/T1) [µM],Ki (CDKs and other kinases [1]) [µM],Ki (CDKs and other kinases [2]) [µM],remaining activity at 10 µM (CDKs and other kinases [3]) [%],remaining activity at 10 µM (CDKs and other kinases [1]) [%],"Ki (CDK4/D1; read-out: CDK inhibition, Ki (μM) CDK4D1) [µM]",remaining activity at 10 µM (CDKs and other kinases [2]) [%],Ki (CDKs and other kinases [3]) [µM]
"Fc1cnc(N[C@H]2CC[C@H](N3CCC3)CC2)nc1-c1cnc2ccc(-c3ccccc3)cn12 [Compound 138, N-((1r,4r)-4-(Azetidin-1-yl)cyclohexyl)-5-fluoro-4-(6-phenylimidazo[1,2-a]pyridin-3-yl)pyrimidin-2-amine]",< 0.001,6,0.006,0.076,0.111,0,–,–,–,–
"Cc1cnc(N[C@H]2CC[C@H](N)CC2)nc1-c1cnc2ccc(Nc3ccccn3)cn12 [Compound 128, (1r,4r)-N^1-(5-Methyl-4-(6-(pyridin-2-ylamino)imidazo [1,2-a]pyridin-3-yl)pyrimidin-2-yl)cyclohexane-1,4-diamine]",0.068 ± 0.006,38,0.31,–,0.706,34,45,–,–,–
"Cc1cnc(NC2CCC(N(C)C)CC2)nc1-c1cnc2ccc(Nc3cncc(F)c3)cn12 (centres unmarked) [Compound 120, N^1-(4-(6-((5-Fluoropyridin-3-yl)amino)imidazo[1,2-a]pyridin-3-yl)-5-methylpyrimidin-2-yl)-N^4,N^4-dimethylcyclohexane-1,4-diamine]",0.023 ± 0.01,–,0.015,–,–,29,31,0.87,4,–
"Cc1cnc(N[C@H]2CC[C@@H](N3CCC3)CC2)nc1-c1cnc2ccc(-c3ccccc3)cn12 [Compound 136, N-((1s,4s)-4-(Azetidin-1-yl)cyclohexyl)-5-methyl-4-(6-phenylimidazo[1,2-a]pyridin-3-yl)pyrimidin-2-amine]",0.297 ± 0.001,48,2.77,–,–,36,22,–,59,–
"Cc1cnc(N[C@H]2CC[C@H](C(=O)O)CC2)nc1-c1cnc2ccc(Nc3cncnc3)cn12 [Compound 158, (1r,4r)-4-((5-Methyl-4-(6-(pyrimidin-5-ylamino)imidazo [1,2-a]pyridin-3-yl)pyrimidin-2-yl)amino)cyclohexane-1-carboxylic acid]",> 10,92,0.185,–,–,98,94,–,85,–
"CCN[C@H]1CC[C@@H](Nc2ncc(C)c(-c3cnc4ccc(-c5ccccc5)cn34)n2)CC1 [Compound 132, (1s,4s)-N^1-ethyl-N^4-(5-Methyl-4-(6-phenylimidazo[1,2-a]pyridin-3-yl)pyrimidin-2-yl)cyclohexane-1,4-diamine]",0.012 ± 0.008,16,1.12,–,–,40,25,–,23,–
"Cc1cnc(NC2CCC(F)(F)CC2)nc1-c1cnc2ccccn12 [Compound 156, N-(4,4-Difluorocyclohexyl)-4-(imidazo[1,2-a]pyridin-3-yl)-5-methylpyrimidin-2-amine]",3.3 ± 0.31,51,> 5,–,–,80,77,–,34,–
"CS(=O)(=O)N1CCC(Nc2ncc(F)c(-c3cnc4ccc(-c5ccccc5)cn34)n2)CC1 [Compound 147, 5-Fluoro-N-(1-(methylsulfonyl)piperidin-4-yl)-4-(6-phenylimidazo[1,2-a]pyridin-3-yl)pyrimidin-2-amine]",0.62 ± 0.26,70,0.711,0.334,0.015,54,–,–,–,–
"Cc1cnc(N[C@H]2CC[C@H](NCC(N)=O)CC2)nc1-c1cnc2ccc(Nc3cncnc3)cn12 [Compound 153, 2-(((1r,4r)-4-((5-Methyl-4-(6-(pyrimidin-5-ylamino)imidazo[1,2-a]pyridin-3-yl)pyrimidin-2-yl)amino)cyclohexyl)amino)acetamide]",9.32 ± 0.73,0,0.01,0.632,–,49,–,–,14,–
"COC(=O)[C@H]1CC[C@H](Nc2ncc(C)c(-c3cnc4ccc(Nc5cncnc5)cn34)n2)CC1 [Compound 157, Methyl (1r,4r)-4-((5-methyl-4-(6-(pyrimidin-5-ylamino)imidazo[1,2-a]pyridin-3-yl)pyrimidin-2-yl)amino) cyclohexane-1-carboxylate]",2.4 ± 0.09,32,0.527,–,–,90,69,–,38,–
"Cc1cnc(N[C@H]2CC[C@H](N3CCCC3)CC2)nc1-c1cnc2ccc(-c3ccccc3)cn12 [Compound 140, 5-Methyl-4-(6-phenylimidazo[1,2-a]pyridin-3-yl)-N-((1r,4r)-4-(pyrrolidin-1-yl)cyclohexyl)pyrimidin-2-amine]",0.242 ± 0.132,65,0.53,–,–,–,39,–,61,0.597
"Fc1cnc(NC2CCN(CC3CCCC3)CC2)nc1-c1cnc2ccc(-c3ccccc3)cn12 [Compound 146, N-(1-(Cyclopentylmethyl)piperidin-4-yl)-5-fluoro-4-(6-phenylimidazo[1,2-a]pyridin-3-yl)pyrimidin-2-amine]",0.026 ± 0.003,34,1.82,–,–,–,16,–,34,0.37
"COc1ccc(Nc2ccc3ncc(-c4nc(N[C@H]5CC[C@H](N)CC5)ncc4C)n3c2)cn1 [Compound 127, (1r,4r)-N^1-(4-(6-((6-Methoxypyridin-3-yl)amino)imidazo [1,2-a]pyridin-3-yl)-5-methylpyrimidin-2-yl)cyclohexane-1,4-diamine]",–,32,0.045,–,–,39,34,–,0,–
"Cc1cnc(N[C@H]2CC[C@H](N)CC2)nc1-c1cnc2cc(F)c(-c3ccccc3)cn12 [Compound 159, (1r,4r)-N^1-(4-(7-Fluoro-6-phenylimidazo[1,2-a]pyridin-3-yl)-5-methylpyrimidin-2-yl)cyclohexane-1,4-diamine]",–,43,0.061,–,–,20,31,–,11,–
"CN[C@H]1CC[C@H](Nc2ncc(C)c(-c3cnc4ccc(-c5ccccc5)cn34)n2)CC1 [Compound 133, (1r,4r)-N^1-Methyl-N^4-(5-methyl-4-(6-phenylimidazo[1,2-a]pyridin-3-yl)pyrimidin-2-yl)cyclohexane-1,4-diamine]",–,60,0.14,–,–,10,22,–,40,–
"Cc1cnc(N2CCC3(CCNC3=O)CC2)nc1-c1cnc2ccccn12 [Compound 124, 8-(4-(Imidazo[1,2-a]pyridin-3-yl)-5-methylpyrimidin-2-yl)-2,8-diazaspiro[4.5]decan-1-one]",> 5,–,> 5,–,–,91,87,–,34,–
